The source of these data is patent US20240075093A1, “COMPOSITIONS AND METHODS OF TREATING A PI3K MEDIATED DISEASE” (VIRGINIA TECH INTELLECTUAL PROPERTIES, INC., priority 2020, published 2024).

The target of one assay is p110b (Homo sapiens, UniProt P42338). In words: p110b activity ELISA (cell-free kinase assay). The format is biochemical. An excerpt:
The activity of the p110b PI3K catalytic subunit was monitored via ELISA upon increasing doses of Ante-Selectide-18.
Relative activity is the ratio of respective treated groups to their non-treated controls.
(FIG. 51A) 3D of a p110β/p85α complex determined by SWISS-MODEL and Cluspro. (FIG. 51B) Protein sequences were aligned using COBALT. C2 domains (top) are show. Red bars: same residues; Grey bars: different residues; Red lines: missing residues. […] in p110β C2 (bottom) is shown and termed as 018. Docking of p110β and p85α (FIG. 51C) or p110α and p85α (FIG. 51D) was done by SWISS-MODEL, Cluspro, and Chimera. The 018 motif is labeled in magenta. Deletion of β18 motif (FIG. 51E) changed the 3D shapes of p110β/p85 (FIG. 51C). (FIG. 51F) p110β cell-free kinase assay. An enzyme-linked immunosorbent assay (ELISA) was used to measure levels of lipids PIP2/PIP3. (FIG. 51G) Effect of PI3K inhibitors on p110s using ELISA. p110β (FIG. 51H) or p110α (FIG. 51I) was docked with Selectide-18-bound p85α using Cluspro/Chimera.
Applicant also included a control scramble peptide containing the antennapedia sequence followed by the amino acid sequence of Ante-Selectide-18 randomly scrambled. […] Applicant reports that this drug is not effective at inhibiting the kinase activity of p110b or other PI3K subunits at 100 nM, showing the promise of the Ante-Selectide-18 peptide as a potent selective p110b inhibitor at a low dose.
(In general: In an ELISA, binding on a coated surface is turned into a signal by an enzyme label.)

The subject of another assay is SF295 cells. Description: MTS cell viability assay. It counts as cell-based. The following applies: 20 uM TGX-221 and 50 uM TMZ, 4 days. Here is the method: (FIG. 12A) p110βC2in. CPP: cell-penetrating peptide. Simulated p110βC2in (rainbow as represented in greyscale) is shown. (FIG. 12B) FITC-p110βC2in in LN229/GSCs was imaged using a fluorescence microscope. Upper: FITC; lower: bright view. (FIG. 12C) PI3K/AKT activity affected by 100 μM p110βC2in (+) or C2Scramble-1 (−). (FIG. 12D) MTS Cell viability assay. Cells were treated with 50 μM peptides for 4 days. Student t test was used to determine P values.
Cell viability was measured by the MTS assay. P values were determined using the student t test or one-way ANOVA. Error bars represent three independent experiments.
This scheme has been repeated in experiments presented hereafter. Cell viability was determined using the MTS viability assay. Percentages of cell viability were obtained by normalizing the MTS readings of treatment groups to that of DMSO group. (FIG. 34B) Scores of Excess Over Bliss (EOB) calculated using the Bliss Independence model. The drug combination is synergistic if EOB is more than 0%, additive if EOB equals to 0%, or antagonistic if EOB is less than 0%. […] (FIG. 34D) EOB scores of drug combinations in LN229 and VTC-001 cells. (FIG. 34E) Caspase 3/7 activity in VTC-103 and VTC-001 cells. The activity of cleaved caspase 3/7 (active) was determined using a luminescence assay. Shown are luminescence readings. (FIG. 34F) EOB scores of drug combinations in VTC-103 and VTC-001 cells. […] SF295 cells were subcutaneously injected into immuno-deficient mice. […] Tumor volumes are shown. […] Cell viability was determined using the MTS viability assay. Percentages of cell viability were obtained by normalizing the MTS readings of treatment groups to that of shNS group. […]
Cell viability was determined by the MTS cell viability assay (Promega) as described previously 21,24-27. […] At each hour time point, the absorbance at 490 nm was measured using a FilterMax F3 microplate reader (Molecular Devices, LLC) according to the manufacturer's instructions. Percent cell viability was obtained by dividing the absorbance of treatment groups to those of untreated and respective vehicle control groups.
A general note: Tetrazolium dyes change colour on reduction, which living cells bring about.

A further assay deals with tumor growth in mice. Description: GBM tumor growth in mice. It counts as in vivo.

p110b, sequence (P42338 whole entry): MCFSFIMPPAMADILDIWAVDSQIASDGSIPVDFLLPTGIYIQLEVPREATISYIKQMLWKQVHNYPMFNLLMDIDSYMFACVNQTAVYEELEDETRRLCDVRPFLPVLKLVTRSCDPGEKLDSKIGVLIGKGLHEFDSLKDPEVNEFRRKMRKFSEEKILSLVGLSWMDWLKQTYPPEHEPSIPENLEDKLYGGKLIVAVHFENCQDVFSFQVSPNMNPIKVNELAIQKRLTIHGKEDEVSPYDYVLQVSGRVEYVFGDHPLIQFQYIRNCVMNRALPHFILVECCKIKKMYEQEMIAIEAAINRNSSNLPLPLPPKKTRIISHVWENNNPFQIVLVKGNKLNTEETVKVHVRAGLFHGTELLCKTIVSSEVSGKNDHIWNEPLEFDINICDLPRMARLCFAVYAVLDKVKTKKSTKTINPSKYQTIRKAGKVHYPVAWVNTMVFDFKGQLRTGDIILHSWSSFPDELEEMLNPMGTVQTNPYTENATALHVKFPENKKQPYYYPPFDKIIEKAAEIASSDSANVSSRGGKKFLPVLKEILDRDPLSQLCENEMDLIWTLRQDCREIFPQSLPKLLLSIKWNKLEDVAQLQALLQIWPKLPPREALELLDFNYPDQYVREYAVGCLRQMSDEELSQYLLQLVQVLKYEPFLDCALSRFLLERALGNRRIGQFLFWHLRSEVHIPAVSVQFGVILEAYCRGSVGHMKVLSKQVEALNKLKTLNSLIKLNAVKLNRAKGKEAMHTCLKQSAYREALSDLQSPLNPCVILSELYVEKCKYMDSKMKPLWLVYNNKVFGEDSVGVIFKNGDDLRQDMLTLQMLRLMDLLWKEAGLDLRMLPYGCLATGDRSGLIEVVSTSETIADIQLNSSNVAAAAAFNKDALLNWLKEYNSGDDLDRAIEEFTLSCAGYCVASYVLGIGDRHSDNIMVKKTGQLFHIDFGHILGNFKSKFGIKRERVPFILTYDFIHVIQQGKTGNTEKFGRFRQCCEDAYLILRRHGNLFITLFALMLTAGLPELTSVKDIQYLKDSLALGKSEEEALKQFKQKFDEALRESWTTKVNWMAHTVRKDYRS

Take `Cc1cc(C(C)Nc2ccccc2)c2nc(N3CCOCC3)cc(=O)n2c1` (stereo not shown) [TGX-221]: at p110b (10 nM TGX-221, ELISA), the “activity of p110β” value is “didn't inactivate p110β”. The “activity of p110b” value at p110b (100 nM, ELISA, isolated protein subunit) was “not effective”. Further, in the assay with SF295 cells, the TMZ sensitivity result was “increased TMZ sensitivity”. Further, the “tumor growth in mice” value with tumor growth in mice is given as “slow down tumor growth”.
